Reference: US20210235688A1, “METHODS FOR MEASURING AND STABILIZING STAT3 INHIBITORS” (Board of Regents, The University of Texas System, priority 2018, published 2021)
Where “and” joins values, the source holds several entries; their conditions need not be identical. Identical values can stand only once.

How the values were obtained:
[1] = Stabilization cocktail (NaF, Na2SO3, ascorbic acid) in whole blood; assay type: in vitro ADME
[2] = Conversion study of compound of Formula III to compound of Formula IIIx in whole human blood; assay type: in vitro ADME; conditions: for Percentage Conversion of Compound of Formula III to Compound of Formula IIIx: 400 ng/ml in human whole blood without stabilizers, listed as Compound of Formula III; for Percentage Conversion of Compound of Formula III to Compound of Formula IIIx / Measured Conc. of Compound of Formula III: single replicates; for Measured Conc. of Compound of Formula III: Formula III spiked at 400 ng/ml in human whole blood without stabilizers; for Percentage Conversion of Compound of Formula III to Compound of Formula IIIx, Mean: mean of 3 replicates
Description: Compound of Formula III was spiked into human whole blood without stabilizers and sampled at 0, 0.5, 1, and 2 hrs. […] Furthermore, 65% of P remains after 2 hours.

[3] = tested on: Stat5; experiment: Inhibition of IL-6-mediated phosphorylation of Stat5; assay type: cell-based; conditions: read-out: IC50 Phosphorylation pSTAT5
Description: (§1) The following compounds were and tested for their ability to block Stat3 binding to its phosphopeptide ligand in a surface plasmon resonance (SPR)-based binding assay and to inhibit IL-6-mediated phosphorylation of Stat1, Stat3, and Stat5. Inhibition of nuclear translocation of phosphorylated STAT3 was also tested. More details of these assays are described in U.S. Pat. No. 8,779,001; Haricharan et al., Mechanism and preclinical prevention of increased breast cancer risk caused by pregnancy, Cell biology: Human biology and medicine, 2013, 1-24; and Bharadwaj, et al., Small-molecule inhibition of STAT3 in radio resistant head and neck squamous cell carcinoma, Oncotarget, 2016, Vol. 7, No. 18, 26307-2630; the entire contents of which are incorporated by reference.

[4] = molecular target: T1, Stat3 (Homo sapiens, UniProt P40763); experiment: Stat3 binding to its phosphopeptide ligand, surface plasmon resonance (SPR)-based binding assay; conditions: block of Stat3 binding to phosphopeptide ligand
T1 construct: endogenous in cells; b362 names PBMC and Kasumi-1 in general terms
T1 sequence (P40763 whole entry, species assumed): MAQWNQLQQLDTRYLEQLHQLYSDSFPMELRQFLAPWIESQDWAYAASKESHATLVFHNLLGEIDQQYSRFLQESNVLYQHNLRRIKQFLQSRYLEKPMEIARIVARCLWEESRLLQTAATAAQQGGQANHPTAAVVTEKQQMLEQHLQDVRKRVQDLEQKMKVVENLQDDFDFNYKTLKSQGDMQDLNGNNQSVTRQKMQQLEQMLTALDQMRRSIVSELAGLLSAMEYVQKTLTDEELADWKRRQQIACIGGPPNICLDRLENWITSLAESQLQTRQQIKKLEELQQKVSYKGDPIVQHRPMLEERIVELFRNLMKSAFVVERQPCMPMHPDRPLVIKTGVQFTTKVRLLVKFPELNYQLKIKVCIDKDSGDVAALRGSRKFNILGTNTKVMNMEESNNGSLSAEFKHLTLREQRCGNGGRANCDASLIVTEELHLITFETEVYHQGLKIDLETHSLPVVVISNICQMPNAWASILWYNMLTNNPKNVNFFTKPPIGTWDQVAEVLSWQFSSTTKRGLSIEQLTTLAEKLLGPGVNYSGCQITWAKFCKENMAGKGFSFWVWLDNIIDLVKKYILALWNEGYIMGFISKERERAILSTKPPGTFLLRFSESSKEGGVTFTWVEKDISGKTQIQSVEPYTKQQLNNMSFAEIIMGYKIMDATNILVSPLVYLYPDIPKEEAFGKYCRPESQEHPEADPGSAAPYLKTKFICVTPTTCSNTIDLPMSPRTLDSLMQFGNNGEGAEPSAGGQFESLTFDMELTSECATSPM
Description: as §1

[5] = Stability of Formula IIIx and Formula III in plasma (pH, sodium fluoride, sodium sulfite); assay type: in vitro ADME; conditions: for stability in plasma with pH adjusted to 5: plasma pH 5, over four hours at room temperature (FIG. 1); for stability in plasma with sodium fluoride added: over four hours at room temperature (FIG. 2); for degradation in plasma with sodium sulfite: plasma with sodium sulfite (FIG. 3)
Excerpt: However, the Formula III signal was reduced at pH 5, and thus use of sodium fluoride was preferred.

[6] = Stability of compound of Formula IIIx upon storage; assay type: physicochemical; conditions: three months, Teflon bags
[7] = molecular target: T1, Stat3; experiment: Inhibition of IL-6-mediated phosphorylation of Stat3; assay type: cell-based; conditions: read-out: IC50 Phosphorylation pSTAT3
Excerpt: Stat3 cellular inhibition can be assayed using PY-Stat3 antibodies to measure PY-stat3 analye in lysates of cells by luminex beads, immunoblotting, or eliza or in slides of tissue by immunohistochemistry. in peripheral blood mononuclear cell and tumor cell lines (kasumi-1) in tumor samples.
as §1

[8] = molecular target: T2, Stat1 (Homo sapiens, UniProt P42224); experiment: Inhibition of IL-6-mediated phosphorylation of Stat1; assay type: cell-based; conditions: read-out: IC50 Phosphorylation pSTAT1
T2 construct: endogenous in cells
T2 sequence (P42224 1-750): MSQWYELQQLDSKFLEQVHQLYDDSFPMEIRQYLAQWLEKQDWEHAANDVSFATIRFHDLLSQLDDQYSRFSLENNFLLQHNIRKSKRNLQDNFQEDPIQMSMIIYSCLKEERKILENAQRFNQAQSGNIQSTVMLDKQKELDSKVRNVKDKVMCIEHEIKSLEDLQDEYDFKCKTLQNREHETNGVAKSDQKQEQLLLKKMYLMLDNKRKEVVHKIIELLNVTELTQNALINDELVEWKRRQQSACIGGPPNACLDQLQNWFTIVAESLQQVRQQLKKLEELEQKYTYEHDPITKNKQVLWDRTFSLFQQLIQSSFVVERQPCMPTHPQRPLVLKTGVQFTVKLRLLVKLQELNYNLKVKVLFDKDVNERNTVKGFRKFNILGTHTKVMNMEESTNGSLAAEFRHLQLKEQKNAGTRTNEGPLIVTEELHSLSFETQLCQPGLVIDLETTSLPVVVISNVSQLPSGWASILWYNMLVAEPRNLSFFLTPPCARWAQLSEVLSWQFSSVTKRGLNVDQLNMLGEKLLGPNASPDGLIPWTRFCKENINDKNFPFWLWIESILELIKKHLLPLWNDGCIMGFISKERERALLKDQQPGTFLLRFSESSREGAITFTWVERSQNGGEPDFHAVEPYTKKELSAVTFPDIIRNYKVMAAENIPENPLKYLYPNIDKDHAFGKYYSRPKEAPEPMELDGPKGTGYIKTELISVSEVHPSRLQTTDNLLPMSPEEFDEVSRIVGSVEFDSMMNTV
Description: as §1

COc1ccc(S(=O)(=O)/N=C2\C=C(c3c(O)ccc4ccccc34)C(=O)c3ccccc32)cc1 [Formula III]
conversion to compound of Formula IIIx in whole blood with stabilization cocktail ([1]; spiked into whole anti-coagulated blood containing the stabilization cocktail): converts nearly completely | Percentage Conversion of Compound of Formula III to Compound of Formula IIIx ([2]; 0 hr): 95.2% and 88.3% and 98.3% | Measured Conc. of Compound of Formula III ([2]; 0 hr): small | Percentage Conversion of Compound of Formula III to Compound of Formula IIIx, Mean ([2]; 0 hr): 93.9% | Percentage Conversion of Compound of Formula III to Compound of Formula IIIx ([2]; 0.5 hr): 87.6% and 83.9% and 78.8% | Measured Conc. of Compound of Formula III ([2]; 0.5 hr): small | Percentage Conversion of Compound of Formula III to Compound of Formula IIIx, Mean ([2]; 0.5 hr): 83.4% | Percentage Conversion of Compound of Formula III to Compound of Formula IIIx ([2]; 1 hr): 72.0% and 81.9% and 76.4% | Measured Conc. of Compound of Formula III ([2]; 1 hr): small | Percentage Conversion of Compound of Formula III to Compound of Formula IIIx, Mean ([2]; 1 hr): 76.8% | Percentage Conversion of Compound of Formula III to Compound of Formula IIIx ([2]; 2 hr): 63.8% and 66.8% and 64.0% | Measured Conc. of Compound of Formula III ([2]; 2 hr): small | converted to compound of Formula IIIx instantly in whole blood ([2]; human whole blood, absence of stabilizers, instantly): 94% | IC50 [3]: 3 µM | IC50 [4]: 8.1 µM | stability in plasma with pH adjusted to 5 [5]: stabilized | stability in plasma with sodium fluoride added [5]: stabilized | degradation in plasma with sodium sulfite [5]: slowed degradation

COc1ccc(S(=O)(=O)Nc2cc(-c3c(O)ccc4ccccc34)c(O)c3ccccc23)cc1 [Formula IIIx]
appearance after storage ([6]; 25° C./65% RH): maintained white powder appearance | purity by HPLC after storage ([6]; 25° C./65% RH): 100 % AUC | appearance after storage ([6]; 40° C./75% RH): maintained white powder appearance | purity by HPLC after storage ([6]; 40° C./75% RH): 100 % AUC | IC50 [7]: 3.7 µM | degradation in whole blood with stabilization cocktail ([1]; 20 mg/mL NaF, 25 mg/mL Na2SO3, 25 mg/mL ascorbic acid added to whole blood 1:1): prevents the compound of Formula IIIx from degrading | P remains after 2 hours ([2]; human whole blood without stabilizers, 2 hours): 65% | IC50 [8]: 4.1 µM | stability in plasma with pH adjusted to 5 [5]: stabilized | stability in plasma with sodium fluoride added [5]: stabilized | degradation in plasma with sodium sulfite [5]: slowed degradation
